What was measured:
[1] = test system: Escherichia coli DH5@/pSodaLux (EBHJ1) [KCTC 10098BP]; type: cell-based; settings: for bioluminescence in dependence on concentration of the toxic material: sodA promoter::LuxCDABE reporter, 96-well luminometer, 30° C., 0-2048 ppm, FIGS. 3-6
Method: The bioluminescent bacteria Escherichia coli DH5@/pSodaLux (EBHJ1) were cultured in a shaking incubator of 30° C. at 250 rpm, in the LB medium [DIFCO, USA] containing 25 μg/ml of kanamycin [Sigma Co., USA] until the OD reaches 0.8 at 600 nm. Then, 2 ml of the culture was cultured for about 4 hr in 100 ml of LB medium. […] The bioluminescence was measured at 30° C. with a 96-well luminometer [DYNEX Technologies, USA].
The bioluminescence is measured in BL (bioluminescence intensity). Increase in bioluminescence can be determined by comparing the bioluminescence when toxic material was injected (sample bioluminescence) and that when no toxic material was injected (control bioluminescence). The RBL (relative bioluminescence) is calculated by the following Equation 1. [formula]

[2] = test system: Escherichia coli DH5@/pSodaLux (EBHJ1) [KCTC 10098BP]; assay: Growth inhibition of the recombinant bioluminescent bacteria; type: cell-based; settings: around 50 ppm

SMILES	bioluminescence in dependence on concentration of the toxic material [1]	bioluminescence ([1]; around 50 ppm)	growth inhibition [2]
OO [hydrogen peroxide]	proportionally increasing bioluminescence		
C[n+]1ccc(-c2cc[n+](C)cc2)cc1 [paraquat dichloride]	proportionally increasing bioluminescence	substantial bioluminescence	little growth inhibition
[Cl][Cd][Cl] [cadmium chloride]	the bioluminescence increased with the concentration		
